The test system of one test is SARS-CoV-2 main protease. The class given is biochemical. To be noted: Docking validation set, class assigned from COVID Moonshot IC50.
For a further test, the system named is Mpro. To be noted: ML dataset, cited from earlier work.
Test [1] concerns SARS, SARS-CoV-2 and MERS Mpro. To be noted: cited from earlier work.
The mark [2] stands for this setting: Origin COVID_Moonshot, ref COVID Moonshot.

Read-outs that look alike come from different tables or passages of the source.

For `Cn1ccc(C(=O)NC[C@@H]2CCCO2)n1` [AAR-POS-0daf6b7e-23, Cn1ccc(C(=O)NC[C@@H]2CCCO2)n1], in the test on SARS-CoV-2 main protease, the “label (active / inactive)” value is “inactive”.
On the same count and under the same terms, the value for `Cc1ccncc1CC(=O)Nc1cccc2c1CNCC2` [ADA-UCB-6c2cb422-3, Cc1ccncc1CC(=O)Nc1cccc2c1CNCC2] was “inactive”; that for `NCc1cn(CC(=O)N(CC(=O)N2CCNCC2)c2ccc(-c3ccccc3)cc2)nn1` [ALP-POS-c0c213c9-7, NCc1cn(CC(=O)N(CC(=O)N2CCNCC2)c2ccc(-c3ccccc3)cc2)nn1] was “inactive”.
Same read-out and setting: the value for `Cn1ccc(CN(C(=O)Cc2cccnc2)c2ccc(-c3ccccn3)cc2)n1` [ALP-POS-c0c213c9-14, Cn1ccc(CN(C(=O)Cc2cccnc2)c2ccc(-c3ccccn3)cc2)n1] was “inactive”; that for `O=C(Cn1nnc2ccccc21)N(Cc1ccccn1)c1ccc(-n2cnnc2)cc1` [ALP-POS-c0c213c9-18, O=C(Cn1nnc2ccccc21)N(Cc1ccccn1)c1ccc(-n2cnnc2)cc1] was “inactive”.
On to `Cc1ccn2c(-c3ccc4[nH]ncc4c3)c(-c3ccc(F)cc3)nc2c1` [ALV-UNI-7ff1a6f9-14, Cc1ccn2c(-c3ccc4[nH]ncc4c3)c(-c3ccc(F)cc3)nc2c1], for which the “label (active / inactive)” value in the test on SARS-CoV-2 main protease was “inactive”.
Same read-out and setting: the same measure for `CC(=O)N1CCN(CC(=O)Nc2cnccc2C)CC1` [BEN-DND-93268d01-8, CC(=O)N1CCN(CC(=O)Nc2cnccc2C)CC1]: “inactive”; for `O=C(Nc1nncn1C1CC1)C1CCOc2c(F)cccc21` (stereo not drawn) [BRU-THA-a358fbdd-7, O=C(Nc1nncn1C1CC1)C1CCOc2c(F)cccc21]: “inactive”.
As to `CC(C)c1cc(CNc2nc(Nc3cc(C4CC4)[nH]n3)cc(N3CCN(C)CC3)n2)on1` [CHEMBL3545085, CC(C)c1noc(CNc2nc(N3CCN(C)CC3)cc(Nc3n[nH]c(C4CC4)c3)n2)c1, reference compound], the IC50 in the test on Mpro (Origin ChEMBL, ref ChEMBL) was 1490 nM; in test [1] (Origin ChEMBL, ref ChEMBL), 1490 nM.
For the molecule `O=c1sn(-c2cccc3ccccc23)c(=O)n1Cc1ccccc1` [CHEMBL3545157, O=C(N1Cc2ccccc2)N(c2cccc3ccccc23)SC1=O, reference compound], the IC50 was 115 nM in the test with Mpro (Origin ChEMBL, ref ChEMBL) and 115 nM in test [1] (Origin ChEMBL, ref ChEMBL).
For `Cc1ccc(N(Cc2cccc(Cl)c2)C(=O)Cn2nnc3ccccc32)cc1` [CHO-MSK-00c5269a-1, Cc(cc1)ccc1N(Cc1cccc(Cl)c1)C(Cn1nnc2c1cccc2)=O, reference compound], the IC50 in the test with Mpro (setting [2]) is 2820 nM; in test [1] (setting [2]) it was 2330 nM.
For the molecule `O=C(COc1ccccc1F)Nc1ncnc2[nH]cnc12` [COM-UCB-8c7d23dc-1, O=C(COc1ccccc1F)Nc1ncnc2[nH]cnc12], the “label (active / inactive)” value in the test on SARS-CoV-2 main protease is “inactive”.
The same measure, in the same setting: the same measure for `Cc1[nH]c2ncnc(NC(=O)c3cc4ccccc4c(=O)o3)c2c1C` [COM-UCB-8c7d23dc-12, Cc1[nH]c2ncnc(NC(=O)c3cc4ccccc4c(=O)o3)c2c1C]: “inactive”; for `O=C(Nc1c[nH]nc1-c1ccccn1)c1cccc2nccn12` [COM-UCB-8c7d23dc-15, O=C(Nc1c[nH]nc1-c1ccccn1)c1cccc2nccn12]: “inactive”.
`Cc1ccncc1NC(=O)N(C)c1cccc(Cl)c1` [EDG-MED-0da5ad92-3, Cc1ccncc1NC(=O)N(C)c1cccc(Cl)c1]: in the test with SARS-CoV-2 main protease, the “label (active / inactive)” value is “inactive”.
With `O=C(Nc1nncn1C1CC1)C1CCOc2ccccc21` (stereo not drawn) [EDJ-MED-0e996074-1, O=C(Nc1nncn1C1CC1)C1CCOc2ccccc21], the “label (active / inactive)” value with SARS-CoV-2 main protease was “inactive”.
Same read-out and setting: the value for `O=C(Cc1cccc(Cl)c1)Nc1cnnc2ccccc12` [EDJ-MED-50fe53e8-2, O=C(Cc1cccc(Cl)c1)Nc1cnnc2ccccc12] was “inactive”.
On to `O=C(Nc1cncc2ccccc12)N(CCC1CCCCC1)c1cccc(Cl)c1` [EDJ-MED-c314995a-1, O=C(Nc1cncc2ccccc12)N(CCC1CCCCC1)c1cccc(Cl)c1, reference compound], for which the IC50 was 621 nM in the test on Mpro (setting [2]) and 261 nM in test [1] (setting [2]).
In the case of `C[C@@H]1C[C@@H](C(=O)Nc2cncc3ccccc23)c2cc(Cl)ccc2O1` [EDJ-MED-e4b030d8-2, C[C@H](C[C@H]1C(Nc2cncc3ccccc23)=O)Oc(cc2)c1cc2Cl, reference compound], the concentration for half-maximal inhibition (IC50) was 378 nM in the test on Mpro (setting [2]) and 231 nM in test [1] (setting [2]).
Turning to `O=C(Nc1nncn1C1CC1)C1CCOc2ccc(Cl)cc21` (stereo not drawn) [JAG-UCB-a3ef7265-20, O=C(Nc1nncn1C1CC1)C1CCOc2ccc(Cl)cc21], in the test with SARS-CoV-2 main protease, the “label (active / inactive)” value was “inactive”.
For the molecule `Cc1ccc(-n2ncc3c(=O)n(CC(N)=O)cnc32)cc1C` [JAG-UCB-ef2c0e8e-4, Cc1ccc(-n2ncc3c(=O)n(CC(N)=O)cnc32)cc1C], in the test with SARS-CoV-2 main protease, the “label (active / inactive)” value was “inactive”.
On the same count and under the same terms, the same measure for `CC(=O)NCCc1c[nH]c2ccc(O)cc12` [JOH-MSK-a63bdd1d-4, CC(=O)NCCc1c[nH]c2ccc(O)cc12]: “inactive”; for `O=C(Nc1cccnc1)N(CCN1CCOCC1)c1cccc(Cl)c1` [JOR-UNI-2fc98d0b-6, O=C(Nc1cccnc1)N(CCN1CCOCC1)c1cccc(Cl)c1]: “inactive”.
With `COC(=O)c1c(C)n(S(C)(=O)=O)c2ccc(N(C(=O)c3ccco3)S(C)(=O)=O)cc12` [LON-WEI-4d77710c-11, Cc1c(C(OC)=O)c(cc(cc2)N(C(c3ccco3)=O)S(C)(=O)=O)c2n1S(C)(=O)=O, reference compound], the results for the IC50 (with Mpro (setting [2]); in test [1] (setting [2])) were 635 nM and 935 nM, respectively.
On to `O=C(O)[C@@H](c1ccccc1)N1Cc2ccccc2C1=O` [LON-WEI-4d77710c-19, OC([C@@H](c1ccccc1)N(Cc1c2cccc1)C2=O)=O, reference compound], for which the IC50 with Mpro (setting [2]) was 1470 nM; in test [1] (setting [2]), 1780 nM.
For `CCOC(=O)c1cc(-c2ccccc2)sc1NC(=O)Cc1csc(-c2ccccc2)n1` [LON-WEI-4d77710c-24, CCOC(c1c(NC(Cc2csc(-c3ccccc3)n2)=O)sc(-c2ccccc2)c1)=O, reference compound], the IC50 in the test with Mpro (setting [2]) is 3670 nM; in test [1] (setting [2]), 4660 nM.
For `N#Cc1ccc(CN2CCC(C3CCNC3)CC2)cc1` (stereo not drawn) [LON-WEI-4d77710c-32, N#Cc1ccc(CN(CC2)CCC2C2CNCC2)cc1, reference compound], the IC50 with Mpro (setting [2]) was 1710 nM; in test [1] (setting [2]), 2060 nM.
On to `Cc1cc(C)c(C#N)c(Sc2ncnc3c2nnn3Cc2ccccc2)n1` [LON-WEI-4d77710c-73, Cc(cc(C)nc1Sc2ncnc3c2nnn3Cc2ccccc2)c1C#N, reference compound], for which the half-inhibitory concentration (IC50) in the test with Mpro (setting [2]) is 452 nM; in test [1] (setting [2]) it was 649 nM.
As for `O=C(Nc1ccccc1)[C@@H](c1ccccc1)N1Cc2ccccc2C1=O` [LON-WEI-b2874fec-15, O=C(Nc1ccccc1)[C@@H](c1ccccc1)N1Cc2ccccc2C1=O], the “label (active / inactive)” value in the test with SARS-CoV-2 main protease was “inactive”.
On the same count and under the same terms, the same measure for `CC1C(O)CCCN1Cc1ccccc1` (stereo not drawn) [MAK-UNK-6435e6c2-9, CC1C(O)CCCN1Cc1ccccc1]: “inactive”.
As for `COc1cccc2[nH]c(=O)cc(C(=O)N3CCN(c4cccc(Cl)c4)CC3)c12` [MAT-POS-3b536971-2, COc(cccc1N2)c1C(C(N(CC1)CCN1c1cccc(Cl)c1)=O)=CC2=O, reference compound], the half-maximal inhibitory concentration (IC50) in the test on Mpro (setting [2]) was 3260 nM; in test [1] (setting [2]), 4680 nM.
With `C[C@@H]1C[C@H](C(=O)Nc2cncc3ccccc23)c2cc(Cl)ccc2O1` [MAT-POS-8a69d52e-2, C[C@H](C[C@@H]1C(Nc2cncc3ccccc23)=O)Oc(cc2)c1cc2Cl, reference compound], the concentration for half-maximal inhibition (IC50) with Mpro (setting [2]) was 1670 nM; in test [1] (setting [2]), 679 nM.
With `O=C(Cc1cc(Cl)cc(Oc2cccnc2)c1)Nc1cncc2ccccc12` [MAT-POS-9ff17035-3, O=C(Cc1cc(Cl)cc(Oc2cnccc2)c1)Nc1cncc2ccccc12, reference compound], the results for the concentration for half-maximal inhibition (IC50) (in the test with Mpro (setting [2]); in test [1] (setting [2])) were 1410 nM and 1340 nM, respectively.
With `O=C(c1cncc2ccccc12)N1CCN(c2cccc(Cl)c2)CC1` [MAT-POS-54c4bf04-3, O=C(c1cncc2ccccc12)N(CC1)CCN1c1cccc(Cl)c1, reference compound], the IC50 in the test on Mpro (setting [2]) is 1220 nM; in test [1] (setting [2]), 1600 nM.
With `O=C(Cc1cncc2ccccc12)N(CCC1CCCCC1)c1cccc(Cl)c1` [MAT-POS-173a45da-1, O=C(Cc1cncc2ccccc12)N(CCC1CCCCC1)c1cccc(Cl)c1, reference compound], the half-maximal inhibitory concentration (IC50) in the test with Mpro (setting [2]) is 1570 nM; in test [1] (setting [2]) it was 2110 nM.
Take `O=C(c1cc(=O)[nH]c2ccc(F)cc12)N1CCN(S(=O)(=O)c2cccc(Cl)c2)CC1` [MAT-POS-590ac91e-69, O=C(c1cc(=O)[nH]c2ccc(F)cc12)N1CCN(S(=O)(=O)c2cccc(Cl)c2)CC1]: the “label (active / inactive)” value with SARS-CoV-2 main protease is “inactive”.
`O=c1oc(Nc2ccccc2)nc2ccccc12` [MAT-POS-ea426761-13, O=C1OC(Nc2ccccc2)=Nc2c1cccc2, reference compound]: the IC50 in the test on Mpro (setting [2]) is 966 nM; in test [1] (setting [2]) it was 1570 nM.
As for `CC(C)(C)c1ccc(N(C(=O)c2c[nH]cn2)C(C(=O)NCCc2cccc(F)c2)c2cccnc2)cc1` (stereo not drawn) [MAT-POS-f2460aef-3, CC(C)(C)c(cc1)ccc1N(C(C(NCCc1cccc(F)c1)=O)c1cnccc1)C(c1c[nH]cn1)=O, reference compound], the IC50 in the test on Mpro (setting [2]) was 671 nM; in test [1] (setting [2]), 292 nM.
With `CC(C)(C)c1ccc(N(C(=O)c2ccc(Cl)o2)C(C(=O)NCCc2cccc(F)c2)c2cccnc2)cc1` (stereo not drawn) [MAT-POS-f2460aef-4, CC(C)(C)c(cc1)ccc1N(C(C(NCCc1cc(F)ccc1)=O)c1cnccc1)C(c(o1)ccc1Cl)=O, reference compound], the results for the half-inhibitory concentration (IC50) (in the test on Mpro (setting [2]); in test [1] (setting [2])) were 415 nM and 315 nM, respectively.
For the molecule `NS(=O)(=O)c1ccc(N2CCC([C@@H]3CCCO3)CC2)cc1` [WAR-XCH-b72a1bbc-18, NS(=O)(=O)c1ccc(N2CCC([C@@H]3CCCO3)CC2)cc1], the “label (active / inactive)” value with SARS-CoV-2 main protease is “inactive”.
Consider “O=C1OC(c2cccs2)=N/C1=C\c1ccc(N2CCOCC2)s1 [MAT-POS-fa06b69f-6]”, for which the IC50 is 701 nM in the test with Mpro (setting [2]) and 696 nM in test [1] (setting [2]).

The term IC50 denotes the concentration that inhibits the measured activity by half.
